Data set [1] is described as follows: Metabolic stability: % metabolism after 60 minutes incubation with active liver microsomes. In kind it is in vitro ADME. As to conditions: compound 5 μM, microsomes 1 mg/ml, NADPH-generating system, 60 minutes at 37 degrees Celsius; for % metabolised compound (comparative structures of WO-00/37461): compound numbers of WO-00/37461. The procedure: Sub-cellular tissue preparations were made according to Gorrod et al. (Xenobiotica 5:453-462, 1975) by centrifugal separation after mechanical homogenization of tissue. Liver tissue was rinsed in ice-cold 0.1 M Tris-HCl (pH 7.4) buffer to wash excess blood. Tissue was then blotted dry, weighed and chopped coarsely using surgical scissors. The tissue pieces were homogenized in 3 volumes of ice-cold 0.1 M phosphate buffer (pH 7.4).
Tissue homogenates were centrifuged at 9000×g for 20 minutes at 4° C. The resulting supernatant was stored at −80° C. and is designated ‘S9’.
The S9 fraction can be further centrifuged at 100.000×g for 60 minutes (4° C.). The resulting supernatant was carefully aspirated, aliquoted and designated ‘cytosol’. The pellet was re-suspended in 0.1 M phosphate buffer (pH 7.4) in a final volume of 1 ml per 0.5 g original tissue weight and designated ‘microsomes’.
All sub-cellular fractions were aliquoted, immediately frozen in liquid nitrogen and stored at −80° C. until use.
For the samples to be tested, the incubation mixture contained PBS (0.1M), compound (5 μM), microsomes (1 mg/ml) and a NADPH-generating system (0.8 mM glucose-6-phosphate, 0.8 mM magnesium chloride and 0.8 Units of glucose-6-phosphate dehydrogenase). Control samples contained the same material but the microsomes were replaced by heat inactivated (10 minutes at 95 degrees Celsius) microsomes. Recovery of the compounds in the control samples was always 100%.
The mixtures were preincubated for 5 minutes at 37 degrees Celsius. The reaction was started at time point zero (t=0) by addition of 0.8 mM NADP and the samples were incubated for 60 minutes (t=60). The reaction was terminated by the addition of 2 volumes of DMSO. Then the samples were centrifuged for 10 minutes at 900×g and the supernatants were stored at room temperature for no longer as 24 hours before analysis. All incubations were performed in duplo. Analysis of the supernatants was performed with LC-MS analysis. Elution of the samples was performed on a Xterra MS C18 (50×4.6 mm, 5 μm, Waters, US). An Alliance 2790 (Supplier: Waters, US) HPLC system was used. Elution was with buffer A (25 mM ammoniumacetate (pH 5.2) in H2O/acetonitrile (95/5)), solvent B being acetonitrile and solvent C methanol at a flow rate of 2.4 ml/min. The gradient employed was increasing the organic phase concentration from 0% over 50% B and 50% C in 5 min up to 100% B in 1 minute in a linear fashion and organic phase concentration was kept stationary for an additional 1.5 minutes. Total injection volume of the samples was 25 μl.
A Quatro triple quadrupole mass spectrometer fitted with and ESP source was used as detector. The source and the desolvation temperature were set at 120 and 350° C. respectively and nitrogen was used as nebuliser and drying gas. Data were acquired in positive scan mode (single ion reaction). Cone voltage was set at 10 V and the dwell time was 1 second.
Metabolic stability was expressed as % metabolism of the compound after 60 minutes (equation given as example) of incubation in the presence of active microsomes (E(act))

Another data set concerns the target T1, h5-HT4b (Homo sapiens, UniProt Q13639).
T1 construct: expressed in transfected cells; host or cells: HEK 293 (clone 9), membrane preparation
The experiment in a line: 5HT4 antagonism: [3H]GR113808 binding to membranes of h5-HT4b-HEK 293 clone 9 cells. As to conditions: displacement of [3H]GR113808 0.1 nM, h5-HT4b-HEK 293 membranes, 30 min at 25° C.; read-out: pIC50 (5HT4 antagonistic data) (converted). In short, it runs like this:
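Membranes from h5-HT4b-HEK 293 clone 9 cells were incubated with [3H]GR113808 (0.1 nM as added) in 50 mM HEPES-NaOH pH 7.4 for 30 min at 25 °C. Non-specific binding was defined with a 5-HT4 agonist. Bound radioligand was separated by filtration over PEI-soaked GF/B filters.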
A general note: Displacement assays read how much labelled ligand stays bound in the presence of the test substance.

T1 sequence (Q13639 whole entry): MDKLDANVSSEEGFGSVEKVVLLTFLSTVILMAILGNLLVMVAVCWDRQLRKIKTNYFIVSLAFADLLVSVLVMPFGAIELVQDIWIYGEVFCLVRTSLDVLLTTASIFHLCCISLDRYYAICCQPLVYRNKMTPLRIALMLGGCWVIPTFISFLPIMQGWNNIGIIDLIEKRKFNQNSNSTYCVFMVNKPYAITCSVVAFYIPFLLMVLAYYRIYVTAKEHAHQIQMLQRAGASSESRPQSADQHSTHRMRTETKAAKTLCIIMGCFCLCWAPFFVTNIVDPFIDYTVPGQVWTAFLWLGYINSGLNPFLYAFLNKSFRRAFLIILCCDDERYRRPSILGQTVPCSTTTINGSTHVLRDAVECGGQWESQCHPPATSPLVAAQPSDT

Consider `O=C(NC[C@@H]1CCN(CCCCO)C[C@H]1O)c1cc(Cl)cc2c1OCCO2` [WO-00/37461 Co. No. 68, reference compound], for which the “% metabolised compound (comparative structures of WO-00/37461)” value in data set [1] is recorded as 10%. Regarding `CCCCN1CC[C@@H](CNC(=O)c2cc(Cl)cc3c2OCCCO3)[C@H](O)C1` [WO-00/37461 Co. No. 119, reference compound], the “% metabolised compound (comparative structures of WO-00/37461)” value in data set [1] is reported as 68%. As for `Cc1cc2c(c(C(=O)NC[C@@H]3CCN(CCOCCO)C[C@H]3O)c1)OCCCO2` [compound 211], on h5-HT4b, the IC50 was 2.95 nM. Further, the “% metabolised compound (compounds of present invention)” value in data set [1] is 13%.

In the case of `O=C(NC[C@@H]1CCN(CCC2OCCO2)C[C@H]1O)c1cc(Cl)cc2c1OCCCO2` [WO-00/37461 Co. No. 143, reference compound], the “% metabolised compound (comparative structures of WO-00/37461)” value in data set [1] is listed as 63%. Turning to `O=C(NC[C@@H]1CCN(CCCCO)C[C@H]1O)c1cc(Cl)cc2c1OCCCO2` [WO-00/37461 Co. No. 160, reference compound], the “% metabolised compound (comparative structures of WO-00/37461)” value in data set [1] was 23%. On to `N#CCCCN1CC[C@@H](CNC(=O)c2cc(C#N)cc3c2OCCO3)[C@H](O)C1` [compound 246], for which, on h5-HT4b, the IC50 was 12.6 nM. The “% metabolised compound (compounds of present invention)” value in data set [1] was determined as 7%.

Consider `COCCCN1CC[C@@H](CNC(=O)c2cc(Cl)cc3c2OCCCO3)[C@H](O)C1` [WO-00/37461 Co. No. 120, reference compound], for which the “% metabolised compound (comparative structures of WO-00/37461)” value in data set [1] is recorded as 25%. Consider `Cc1cc2c(c(C(=O)NC[C@@H]3CCN(CCCO)C[C@H]3O)c1)OCCCO2` [compound 168], for which the IC50 on h5-HT4b is 2 nM. In addition, in data set [1], the “% metabolised compound (compounds of present invention)” value is reported as 4%. In the same order, the values of `COCCCN1CC[C@@H](CNC(=O)c2cc(C)cc3c2OCCCO3)[C@H](O)C1` (single isomer, unassigned) [compound 162] are 3.09 nM and 9%.

For `COCCCN1CC[C@@H](CNC(=O)c2cc(OC)cc3c2OCCCO3)[C@H](O)C1` [compound 87], at h5-HT4b, the IC50 is 12.9 nM. Also, the “% metabolised compound (compounds of present invention)” value in data set [1] was found to be 4%. On to `O=C(NC[C@@H]1CCN(CCCO)C[C@H]1O)c1cc(Cl)cc2c1OCCCO2` [WO-00/37461 Co. No. 144, reference compound], for which the “% metabolised compound (comparative structures of WO-00/37461)” value in data set [1] is 11%. For the molecule `COCCCN1CC[C@@H](CNC(=O)c2cc(C#N)cc3c2OCCO3)[C@H](O)C1` [compound 247], the IC50 at h5-HT4b is 3.98 nM. In data set [1], the “% metabolised compound (compounds of present invention)” value is 12%. Turning to `COCCCN1CC[C@@H](CNC(=O)c2cc(Cl)cc3c2OCCO3)[C@H](O)C1` [WO-00/37461 Co. No. 67, reference compound], the “% metabolised compound (comparative structures of WO-00/37461)” value in data set [1] came to 30%.

`O=C(NC[C@@H]1CCN(CC2CCCO2)C[C@H]1O)c1cc(Cl)cc2c1OCCCO2` (stereo partly shown) [WO-00/37461 Co. No. 122, reference compound]: in data set [1], the “% metabolised compound (comparative structures of WO-00/37461)” value is listed as 79%. Regarding `COc1cc2c(c(C(=O)NC[C@@H]3CCN(CCC4OCCO4)C[C@H]3O)c1)OCCCO2` [compound 187], the IC50 at h5-HT4b is 11.5 nM. In data set [1], the “% metabolised compound (compounds of present invention)” value is reported as 18%. As for `Cc1cc2c(c(C(=O)NC[C@@H]3CCN(CC4CCCO4)C[C@H]3O)c1)OCCCO2` (stereo partly shown) [compound 186], the IC50 at h5-HT4b is 5.01 nM. Besides, the “% metabolised compound (compounds of present invention)” value in data set [1] amounted to 0%. In the same order, the values of `CCCCN1CC[C@@H](CNC(=O)c2cc(CC#N)cc3c2OCCCO3)[C@H](O)C1` [compound 183] are 3.47 nM and 10%. On to `COCCCN1CC[C@@H](CNC(=O)c2cc(C#N)cc3c2OCCCO3)[C@H](O)C1` [compound 158], for which the IC50 at h5-HT4b was 10.2 nM. Moreover, in data set [1], the “% metabolised compound (compounds of present invention)” value amounted to 5%. Consider `Cc1cc2c(c(C(=O)NC[C@@H]3CCN(CCCCO)C[C@H]3O)c1)OCCCO2` [compound 225], for which the IC50 at h5-HT4b was 0.759 nM. Besides, in data set [1], the “% metabolised compound (compounds of present invention)” value was 14%. With `COCc1cc2c(c(C(=O)NC[C@@H]3CCN(CC4CCCO4)C[C@H]3O)c1)OCCCO2` (stereo partly shown) [compound 125], the IC50 at h5-HT4b was 16.2 nM. Moreover, the “% metabolised compound (compounds of present invention)” value in data set [1] is given as 6%. On the same counts, the results for `COCCCN1CC[C@@H](CNC(=O)c2cc(C#N)cc3c2OCCCO3)[C@H](O)C1` [compound 202] are 4.37 nM and 8%. On the same counts, the results for `COc1cc2c(c(C(=O)NC[C@@H]3CCN(CCCO)C[C@H]3O)c1)OCCCO2` [compound 185] are 19.5 nM and 3%. Consider `N#CCCCN1CC[C@@H](CNC(=O)c2cc(Cl)cc3c2OCCO3)[C@H](O)C1` [WO-00/37461 Co. No. 74, reference compound], for which, in data set [1], the “% metabolised compound (comparative structures of WO-00/37461)” value is recorded as 50.5%.

For `N#Cc1cc2c(c(C(=O)NC[C@@H]3CCN(CCCO)C[C@H]3O)c1)OCCCO2` [compound 165], the IC50 on h5-HT4b is 15.8 nM. Also, in data set [1], the “% metabolised compound (compounds of present invention)” value stood at 1%. `CC1(CCCN2CC[C@@H](CNC(=O)c3cc(Cl)cc4c3OCCCO4)[C@H](O)C2)OCCO1` [WO-00/37461 Co. No. 124, reference compound]: the “% metabolised compound (comparative structures of WO-00/37461)” value in data set [1] was 49.5%.

As to `CC(=O)CCCN1CC[C@@H](CNC(=O)c2cc(Cl)cc3c2OCCCO3)[C@H](O)C1` [WO-00/37461 Co. No. 121, reference compound], the “% metabolised compound (comparative structures of WO-00/37461)” value in data set [1] came out at 30%. The same measure, in the same setting: then `O=C(NC[C@@H]1CCN(CCOCCO)C[C@H]1O)c1cc(Cl)cc2c1OCCCO2` [WO-00/37461 Co. No. 128, reference compound], with 26%. Regarding `N#CCCCN1CC[C@@H](CNC(=O)c2cc(N)cc3c2OCCCO3)[C@H](O)C1` [compound 3], the IC50 on h5-HT4b was 38 nM. Still for that read-out and setting: as for `CCCCN1CC[C@H](CNC(=O)c2cc(C)cc3c2OCCCO3)[C@H](O)C1` [compound 242], the figure is 0.794 nM; as for `CC1(CCCN2CC[C@@H](CNC(=O)c3cc(N)cc4c3OCCCO4)[C@H](O)C2)OCCO1` [compound 59], 51.3 nM; as for `Cc1cc2c(c(C(=O)NC[C@@H]3CCN(CCCS(C)(=O)=O)C[C@H]3O)c1)OCCO2` [compound 237], 1.45 nM.

For the molecule `CNc1cc2c(c(C(=O)NC[C@@H]3CCN(CCNS(C)(=O)=O)C[C@H]3O)c1)OCCO2` [compound 103], at h5-HT4b, the IC50 is 22.9 nM.

Take `COCCN1CC[C@@H](CNC(=O)c2cc(N)cc3c2OCCO3)[C@H](O)C1` [compound 32]: on h5-HT4b, the IC50 was 63.1 nM. Turning to `CNc1cc2c(c(C(=O)NC[C@@H]3CCN(CCOC)C[C@H]3O)c1)OCCO2` [compound 35], the IC50 at h5-HT4b was 44.7 nM.

As for `CC1(CCCN2CC[C@@H](CNC(=O)c3cc(N)c(Cl)c4c3OCCO4)[C@H](O)C2)OCCO1` [compound 43], the IC50 on h5-HT4b is 13.2 nM. On to `N#Cc1cc2c(c(C(=O)NC[C@@H]3CCN(CCCC(N)=O)C[C@H]3O)c1)OCCCO2` [compound 252], for which, on h5-HT4b, the IC50 was 4.27 nM. The same measure, in the same setting: then `CNc1cc(C(=O)NC[C@@H]2CCN(CCC3OCCO3)C[C@H]2O)c2c(c1Cl)OCCO2` [compound 30], with 31.6 nM. Take `CNc1cc2c(c(C(=O)NC[C@@H]3CCN(CCCCO)C[C@H]3O)c1)OCCCO2` [compound 136]: the IC50 at h5-HT4b was 81.3 nM.

Take `Cc1cc2c(c(C(=O)NCC3(O)CCN(CCCC#N)CC3)c1)OCCCO2` [compound 240]: the IC50 at h5-HT4b was 45.7 nM.

As for `CO[C@@H]1CN(CCCC#N)CC[C@H]1CNC(=O)c1cc(C#N)cc2c1OCCCO2` [compound 208], the IC50 at h5-HT4b was 5.62 nM.

Values taken from US7638535B2, “4-(aminomethyl)-piperidine benzamides as 5HT4-antagonists” (Janssen Pharmaceutica N.V., priority 2003, dated 2009).
